Laboratory results from US20250011366A1, “Prodrugs of Antibiotic Teixobactin” (priority 2021, published 2025).

What was measured:
[1] = Qualitative gelation assay in PBS; format: physicochemical; conditions: 10 mg/mL DMSO stock added to 1×PBS pH 7.4
Procedure: Gel formation of the teixobactin analogues was compared to that of the O-acyl isopeptide prodrugs in a qualitative gelation assay. In this experiment, a 10 mg/mL stock solution of the peptide trifluoroacetate salt in DMSO is added to 1×PBS buffer at pH 7.4 and gel formation is observed over time. Crystal violet is added to the PBS buffer to facilitate the visualization of the gels by providing contrast. […] In contrast, when the Lys10-teixobactin prodrugs are added, no immediate gel formation occurs.
Gelation assays of the O-acyl isopeptide prodrug analogues of teixobactin were performed using procedures previously reported. See K. Chen, et al., Chem. Commun. 2017, 53, 11357-11359, the disclosure of which is herein incorporated by reference.

human red blood cells = experiment: Hemolytic assay; format: cell-based
Procedure: The hemolytic activity of the O-acyl isopeptide prodrugs and the corresponding teixobactin analogues were evaluated with human red blood cells (FIGS. 9A to 9H). Triton X-100 and melittin were used as positive controls and vancomycin and water (vehicle) were used as negative controls in the hemolysis assays. […] In contrast, 0.002% polysorbate 80 had no effect on the hemolytic activity of Lys10-teixobactin and Leu10-teixobactin and little effect on the corresponding O-acyl isopeptide prodrug analogues. When the hemolysis assays were performed with teixobactin, no hemolysis was observed up to 100 μg/mL without polysorbate 80 and modest hemolysis (4%) at 100 μg/mL with 0.002% polysorbate 80.
Preparation of Phosphate-Buffered Saline (PBS) Buffers. A 10×PBS buffer was prepared by dissolving 8.9 g of Na2HPO4, 1.2 g KH2PO4, 40 g NaCl, and 1 g KCl in 500 mL of 18 MO deionized water. The solution was stirred until the buffer salts were completely dissolved. The pH of the 10×PBS buffer was adjusted to 7.4 using either 1 M HCl or 1 M NaOH and was subsequently sterile filtered. To create a 1×PBS buffer, the 10×PBS buffer was diluted 10-fold using 18 MO deionized water. Another 1×PBS buffer was made, supplemented with 0.002% polysorbate 80.
Preparation of human red blood cells. Whole human blood was stored in a 4° C. in K2 EDTA to prevent coagulation. On the day of cell treatment, the blood was centrifuged at 800×g for 5 min at 4° C. to isolate red blood cells (RBCs). The plasma layer was then removed and discarded. Approximately 3 mL of 150 mM NaCl solution was added to the RBCs and mixed gently by inversion. The RBCs were centrifuged at 800×g for 8 min at 4° C. and the supernatant was discarded. An additional wash with 150 mM NaCl was performed, centrifuged at 800×g for 8 min at 4° C. and the supernatant was discarded. 2 mL of whole RBCs were transferred to a 15-mL conical tube. Approximately 4 mL of 1×PBS was added to the RBCs and inverted gently to mix. The RBCs were centrifuged at 800×g for 8 min at 4° C. […]
Hemolytic assay readout. […]

[2] = system: four Gram-positive bacteria (methicillin-susceptible and methicillin-resistant S. aureus, B. subtilis, S. epidermidis); format: cell-based
Procedure: The antibiotic activity of the teixobactin O-acyl isopeptide prodrugs was evaluated using minimum inhibitory concentration (MIC) assays with four Gram-positive bacteria and compared the MIC values to those of the parent teixobactin analogues. Methicillin-susceptible and methicillin-resistant S. aureus were used as representative pathogens and B. subtilis and S. epidermidis as additional Gram-positive bacteria, and E. coli was used as a Gram-negative control. The activities of the teixobactin analogues and prodrugs were compared to those of teixobactin and vancomycin.
Bacillus subtilis (ATCC 6051), Staphylococcus epidermidis (ATCC 14990), Staphylococcus aureus (ATCC 29213), and Escherichia coli(ATCC 10798) were cultured from glycerol stocks in Mueller-Hinton broth overnight in a shaking incubator at 37° C. Staphylococcus aureus (ATCC 700698) was cultured from a glycerol stock in brain heart infusion broth overnight in a shaking incubator at 37° C. An aliquot of a 1 mg/mL antibiotic stock solution in DMSO was diluted with appropriate culture media to make a 64 μg/mL solution. […] The overnight cultures of each bacterium were diluted with Mueller-Hinton broth to an OD600 of 0.075 as measured for 200 μL in a 96-well plate. […] The OD600 were measured using a 96-well UV/vis plate reader (MultiSkan GO, Thermo Scientific). […]

SMILES	gel formation immediately upon addition to PBS [1]	effect of 0.002% polysorbate 80 on hemolytic activity (human red blood cells)	hemolysis (human red blood cells; concentrations up to 100 μg/mL, with and without 0.002% polysorbate 80)	MIC [2] [µg/mL]
CC[C@H](C)[C@H](NC(=O)[C@@H](Cc1ccccc1)NC)C(=O)N[C@@H](CO)C(=O)N[C@H](CCC(N)=O)C(=O)N[C@@H](C(=O)N[C@H](C(=O)N[C@@H](CO)C(=O)N[C@H]1C(=O)N[C@@H](C)C(=O)N[C@@H](CCCNC(=N)N)C(=O)N[C@@H]([C@@H](C)CC)C(=O)O[C@H]1C)[C@@H](C)CC)[C@@H](C)CC [Arg10-teixobactin]	form gels immediately	–	–	–
CC[C@H](C)[C@H](NC(=O)[C@@H](Cc1ccccc1)NC)C(=O)N[C@@H](CO)C(=O)N[C@H](CCC(N)=O)C(=O)N[C@@H](C(=O)N[C@H](C(=O)N[C@@H](CO)C(=O)N[C@H]1C(=O)N[C@@H](C)C(=O)N[C@@H](CC(C)C)C(=O)N[C@@H]([C@@H](C)CC)C(=O)O[C@H]1C)[C@@H](C)CC)[C@@H](C)CC [Leu10-teixobactin]	form gels immediately	no effect	–	–
CN[C@H](CC(C)C)C(=O)N[C@H]1C(=O)N[C@@H](CC(N)=O)C(=O)N[C@H]2C(=O)N[C@H]3C(=O)N[C@H](C(=O)N[C@H](C(=O)O)c4cc(O)cc(O)c4-c4cc3ccc4O)[C@H](O)c3ccc(c(Cl)c3)Oc3cc2cc(c3O[C@@H]2O[C@H](CO)[C@@H](O)[C@H](O)[C@H]2O[C@H]2C[C@](C)(N)[C@H](O)[C@H](C)O2)Oc2ccc(cc2Cl)[C@H]1O [vancomycin]	–	–	No hemolysis	–
CC[C@H](C)[C@H](NC(=O)[C@@H](Cc1ccccc1)NC)C(=O)N[C@@H](CO)C(=O)N[C@H](CCC(N)=O)C(=O)N[C@@H](C(=O)N[C@H](C(=O)N[C@@H](CO)C(=O)N[C@H]1C(=O)N[C@@H](C)C(=O)N[C@@H](CCCCN)C(=O)N[C@@H]([C@@H](C)CC)C(=O)O[C@H]1C)[C@@H](C)CC)[C@@H](C)CC [Lys10-teixobactin]	large gelatinous aggregates form immediately	no effect	–	2 to 4
